Entries after “also recorded” stand apart in the source; their conditions may differ. Counter-ions that a name gives are not always drawn.
Columns and labels:
sweet taste of sucrose = assay: Sweet taste detection threshold of sucrose/Pyridinium-Betaine mixtures (triangle test, sensory panel); type: in vivo; design: key to Threshold decrease: fold decrease of sweet threshold vs pure sucrose; settings: equimolar mixture with sucrose; for Threshold decrease: vs sucrose in water 12.5 mmol/L
Description: • Sensory panel training: […] Sensory analyses were performed in a sensory panel room at 22-25° C. on three different sessions. • Taste thresholds: The taste thresholds of the tastants or mixtures containing basic tastants plus Pyridinium-Betains were determined in a triangle test using Evian® mineral water as the solvent at a defined pH ([…] and H.-D. Belitz, Z. Lebensm. Unters. Forsch. 1975, 159, 65-72). The samples (3 mL) were presented in order of increasing concentrations (serial 1:1 dilutions). The threshold values evaluated in two different sessions were averaged. […] The taste intensities of aqueous (Evian®) solutions containing a basic tastant, such as glucose and MSG, for example, in constant concentrations and the compounds of the general formula (A), for example […], in various concentrations were compared with those of a solution containing the basic tastant only. To achieve this, triangle tests were performed with two glass vials containing the basic tastant in constant concentrations, and one glass vial containing a stepwise 1:1-diluted mixture of basic […]. […] The relative taste strength (taste enhancing factor) of a mixture containing the basic […] was related to the basic tastants glucose, MSG, or other tastants, respectively, as standard substances, and was determined as the ratio of the concentrations c of iso-intensely tasting solutions of the basic tastant, such as glucose (glc), and the mixture containing tastant plus Pyridinium-Betain, […])=[…] This taste enhancing effect is illustrated in examples. The sweet taste thresholds of equimolar mixtures of sweet tasting compounds and various Pyridinium-Betaines were determined by a triangle test using EVIAN® mineral water as the solvent. The sensorial evaluations were performed at different pH values. The equimolar mixture of […] and sucrose at pH 7.0 was evaluated with a 4-fold lower sweet threshold concentration than pure sucrose (Table 1).

sweet taste of glucose = assay: Iso-intensity: relative sweetness of glucose/Alapyridaine mixtures; type: in vivo
Description: • Sensory panel training: […] Sensory analyses were performed in a sensory panel room at 22-25° C. on three different sessions. • Taste thresholds: The taste thresholds of the tastants or mixtures containing basic tastants plus Pyridinium-Betains were determined in a triangle test using Evian® mineral water as the solvent at a defined pH ([…] and H.-D. Belitz, Z. Lebensm. Unters. Forsch. 1975, 159, 65-72). The samples (3 mL) were presented in order of increasing concentrations (serial 1:1 dilutions). The threshold values evaluated in two different sessions were averaged. […] The taste intensities of aqueous (Evian®) solutions containing a basic tastant, such as glucose and MSG, for example, in constant concentrations and the compounds of the general formula (A), for example […], in various concentrations were compared with those of a solution containing the basic tastant only. […] The relative taste strength (taste enhancing factor) of a mixture containing the basic […] was related to the basic tastants glucose, MSG, or other tastants, respectively, as standard substances, and was determined as the ratio of the concentrations c of iso-intensely tasting solutions of the basic tastant, such as glucose (glc), and the mixture containing tastant plus Pyridinium-Betain, […])=[…] […]

CC(C(=O)[O-])[n+]1cc(O)ccc1CO (centres unmarked) [Alapyridaine, N-(1-carboxyethyl)-3-hydroxy-6-hydroxymethyl-pyridinium inner salt]
Sweet detection threshold (sweet taste of sucrose; pH 5.0): 3.0 mmol/kg water
Taste quality (sweet taste of sucrose; pH 5.0): sour taste; also recorded: sweet/
Threshold decrease (sweet taste of sucrose; pH 5.0): 4.0
Sweet detection threshold (sweet taste of sucrose; pH 7.0): 3.0 mmol/kg water
Taste quality (sweet taste of sucrose; pH 7.0): sweet
Threshold decrease (sweet taste of sucrose; pH 7.0): 4
Sweet detection threshold (sweet taste of sucrose; pH 9.0): 1.5 mmol/kg water
Taste quality (sweet taste of sucrose; pH 9.0): sweet
Threshold decrease (sweet taste of sucrose; pH 9.0): 8
relative sweetness (iso-intensity) (sweet taste of glucose; 80 mmol/kg glucose and 125 mmol/kg Alapyridaine vs 80 mmol/kg glucose): 8 -fold
maximum relative sweetness (iso-intensity) (sweet taste of glucose; 267 mmol/kg glucose and 125 mmol/kg Alapyridaine vs reference solution 267 mmol/kg glucose): 5.3 -fold
